# From ChEMBL document CHEMBL1201862, “PubChem BioAssay data set” (2004)
#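 Cultured in 96-well plates, cells were exposed to test compound for 48 hours across five concentrations. At the GI50, growth is halved.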 Activity calls are given as the source filed them. Rule as the data show it: active = GI50 up to about 1.1 µM and inactive = higher.
# Experiments:
# Assay in all cases: DTP human tumour cell line panel, 48 h
# 786-0 = system: 786-0
# A498 = system: A498
# A549 = system: A549
# ACHN = system: ACHN
# CAKI-1 = system: CAKI-1
# CCRF-CEM = system: CCRF-CEM
# COLO 205 = system: COLO 205
# DU-145 = system: DU-145
# EKVX = system: EKVX
# HCC 2998 = system: HCC 2998
# HCT-116 = system: HCT-116
# HCT-15 = system: HCT-15
# HL-60 = system: HL-60
# HOP-62 = system: HOP-62
# HOP-92 = system: HOP-92
# HT-29 = system: HT-29
# Hs-578T = system: Hs-578T
# IGROV-1 = system: IGROV-1
# K562 = system: K562
# KM12 = system: KM12
# LOX IMVI = system: LOX IMVI
# M14 = system: M14
# MCF7 = system: MCF7
# MDA-MB-231 = system: MDA-MB-231
# MDA-N = system: MDA-N
# MOLT-4 = system: MOLT-4
# Malme-3M = system: Malme-3M
# NCI-H23 = system: NCI-H23
# NCI-H460 = system: NCI-H460
# NCI/ADR-RES = system: NCI/ADR-RES
# OVCAR-3 = system: OVCAR-3
# OVCAR-4 = system: OVCAR-4
# OVCAR-5 = system: OVCAR-5
# OVCAR-8 = system: OVCAR-8
# PC-3 = system: PC-3
# RPMI-8226 = system: RPMI-8226
# SF-268 = system: SF-268
# SF-295 = system: SF-295
# SF-539 = system: SF-539
# SK-MEL-28 = system: SK-MEL-28
# SK-MEL-2 = system: SK-MEL-2
# SK-MEL-5 = system: SK-MEL-5
# SK-OV-3 = system: SK-OV-3
# SN12C = system: SN12C
# SNB-19 = system: SNB-19
# SNB-75 = system: SNB-75
# SR = system: SR
# SW-620 = system: SW-620
# T47D = system: T47D
# TK-10 = system: TK-10
# U-251 = system: U-251
# UACC-257 = system: UACC-257
# UO-31 = system: UO-31
smiles,measurement,setting,value
Cc1ccc(N(C(=O)Nc2ccccc2)C2=NCC(C)S2)cc1C (stereo not drawn),GI50,786-0,20.4 µM (inactive)
same,GI50,A498,14 µM (inactive)
same,GI50,A549,29 µM (inactive)
same,GI50,ACHN,28.7 µM (inactive)
same,GI50,CAKI-1,> 10 µM (inactive)
same,GI50,CCRF-CEM,19.6 µM (inactive)
same,GI50,COLO 205,19.4 µM (inactive)
same,GI50,DU-145,31.4 µM (inactive)
same,GI50,EKVX,17.9 µM (inactive)
same,GI50,HCC 2998,> 10 µM (inactive)
same,GI50,HCT-116,16.4 µM (inactive)
same,GI50,HCT-15,15.4 µM
same,GI50,HL-60,20.1 µM (inactive)
same,GI50,HOP-62,53.3 µM (inactive)
same,GI50,HOP-92,22.5 µM (inactive)
same,GI50,HT-29,18.2 µM (inactive)
same,GI50,Hs-578T,23.2 µM (inactive)
same,GI50,IGROV-1,22.4 µM (inactive)
same,GI50,K562,42.7 µM (inactive)
same,GI50,KM12,17.8 µM (inactive)
same,GI50,LOX IMVI,16.6 µM (inactive)
same,GI50,M14,13.4 µM (inactive)
same,GI50,MCF7,12.8 µM (inactive)
same,GI50,MDA-MB-231,18.7 µM (inactive)
same,GI50,MDA-N,17.6 µM (inactive)
same,GI50,MOLT-4,> 10 µM (inactive)
same,GI50,Malme-3M,20.3 µM (inactive)
same,GI50,NCI-H23,15.7 µM (inactive)
same,GI50,NCI-H460,18 µM (inactive)
same,GI50,NCI/ADR-RES,14.8 µM (inactive)
same,GI50,OVCAR-3,17.3 µM (inactive)
same,GI50,OVCAR-4,28.9 µM (inactive)
same,GI50,OVCAR-5,23.1 µM (inactive)
same,GI50,OVCAR-8,29.2 µM (inactive)
same,GI50,PC-3,24.4 µM (inactive)
same,GI50,RPMI-8226,20 µM (inactive)
same,GI50,SF-268,24 µM (inactive)
same,GI50,SF-295,24.4 µM (inactive)
same,GI50,SF-539,20.4 µM (inactive)
same,GI50,SK-MEL-28,17.5 µM (inactive)
same,GI50,SK-MEL-2,17.4 µM (inactive)
same,GI50,SK-MEL-5,17 µM (inactive)
same,GI50,SK-OV-3,39.6 µM (inactive)
same,GI50,SN12C,13.7 µM (inactive)
same,GI50,SNB-19,33.3 µM (inactive)
same,GI50,SNB-75,24.4 µM (inactive)
same,GI50,SR,23.7 µM (inactive)
same,GI50,SW-620,24.7 µM (inactive)
same,GI50,T47D,14.8 µM (inactive)
same,GI50,TK-10,21 µM (inactive)
same,GI50,U-251,19.3 µM (inactive)
same,GI50,UACC-257,> 10 µM (inactive)
same,GI50,UO-31,18.5 µM (inactive)
